Measurements published in US20090054368A1, “Substituted gemini surfactant compounds” (University of Saskatchewan, priority 2007, published 2009).
“And” between values parts separate entries of the source, which are not always exact repeats. Equal values may be shown once. “Also recorded” adds a separate entry of the source.

Key:
[1] = Average membrane charge density calculation for plasmid DNA-gemini surfactant-DOPE nanoparticles; assay type: physicochemical; settings: calculated from head group areas
[2] = Small angle X-ray scattering (SAXS) of plasmid DNA-gemini surfactant-DOPE complexes; assay type: physicochemical; settings: for d-spacing of main scattering peak / phase / morphology of lipid bilayers from scattering pattern (in words) / d-spacing of adjacent DNA molecules: plasmid DNA-gemini surfactant-DOPE complexes; for d-spacing of adjacent DNA molecules: weak peaks at q=0.172 Å^−1; for scattering peak position q, DNA: scattering from adjacent DNA molecules
Protocol: SAXS measurements were carried out at beamline X21 at the National Synchrotron Light Source at Brookhaven National Laboratory. Beamline X21 is based on a wiggler source, with a helium gas-cooled Si(111) monochromator selecting the photon energy. The X-ray beam is focused by a toroidal mirror into the experimental station. Three pairs of precision slits, positioned at 4 m, 1 m, and 5 cm upstream of the sample, define the beam. The scattering pattern is recorded using a 13 cm Mar CCD detector (Mar USA, Evanston, Ill.) located 1.26 m (calibrated with the scattering pattern of silver behenate) downstream of the sample. The measurements were performed with 12 KeV x-rays and the data covered a q-range from 0.008 Å^−1 to 0.375 Å^−1. All beam paths are under vacuum, except at the sample position, where the sample is in air, and kapton windows terminate the vacuum beam paths. Samples were loaded into 1.5 mm capillaries (Charles Supper #15-BG, Natick Mass.) and data recorded at room temperature. All spectra were processed to remove background contributions by subtracting the scattering profile obtained for a water-filled capillary. Peak fitting was carried out using the open-sources software package “fityk” (available at http://www.unipress.waw.pl/fityk/; last accessed on Jul. 5, 2007) using multiple Gaussian functions.
Solutions for SAXS analysis were prepared by addition of appropriate amounts of stock surfactant, DNA, and DOPE solutions, followed by sonication (to ensure complete mixing) where appropriate. The pGTmCMV.IFN-GFP plasmid DNA was used in the SAXS studies. The final concentrations of DNA and DOPE were 0.075 mM (50 μg/mL) and 1.00 mM (0.75 mg/mL), respectively. The concentration of gemini surfactant was adjusted as needed to obtain the desired 1:10 DNA:surfactant charge ratio. Preliminary x-ray scattering studies indicated these concentrations to be too dilute to give good scattering signals; as a result, the samples were concentrated 5× by evaporation.

[3] = from reference [24]; cited from earlier work
[4] = tested on: COS-7 African Green monkey kidney fibroblast cells; experiment: Transfection assay (luciferase production after transfection with plasmid DNA-gemini surfactant complexes); assay type: cell-based; settings: PGL complexes, with DOPE added
Protocol: COS-7 African Green monkey kidney fibroblast cells (ATCC CRL1651) were prepared for transfection in antibiotic and 10% fetal bovine serum supplemented minimal Eagle's medium (MEM). The day before transfection, 5×10^4 cells/well were seeded in 24-well plates (Greiner Labortechnik GmbH, Germany). The supplemented MEM was changed to MEM one hour prior to transfection.
The pMASIA.Luc plasmid DNA was used at a concentration of 0.2 μg/well for transfection. The transfection mixtures were prepared as follows: 0.2 μg of plasmid DNA was mixed with aliquots of gemini surfactant solution to obtain a plasmid DNA:gemini surfactant charge ratio of 1:10 and incubated at room temperature for 15 minutes. To this mixture, 25 μL of DOPE liposomes were added. The transfection mixtures were incubated for 30 minutes at room temperature prior to transfection and added to the cells, dropwise. The plates were incubated for 5 hours at 37° C. in a CO2 incubator. Dc-Chol (30-[N—(N′,N′-Dimethylaminoethane)-carbamoyl]cholesterol) was used for comparison and, as a positive control, cells were also transfected with Lipofectamine Plus™ Reagent (Invitrogen Life Technologies, Carlsbad, Calif.), according to the manufacturer's protocol, with 0.2 μg of plasmid DNA per well.
Luciferase production was quantified using the Promega Steady-Glo™ luciferase assay system. Luminescence was monitored using a Turner Biosystems (Sunnyvale, Calif., USA) Reporter microplate luminometer. Statistical analysis was performed using ANOVA and Tukey's multiple comparison test. […] Equal variances were tested using Bartlett's test, and normality by the D'Agostino & Pearson omnibus normality test.

cultured cells = experiment: Viability of cells following transfection; assay type: cell-based; settings: after transfection with plasmid DNA-gemini surfactant-DOPE or Lipofectamine Plus; relative to controls (no treatment or plasmid DNA alone)
Protocol: Ideal transfection reagents are minimally toxic and/or disruptive to cells. Accordingly, the N-substituted surfactants were tested for toxicity in cultured cells. The viability of cells following transfection with either plasmid DNA-gemini surfactant-DOPE or Lipofectamine Plus are shown in FIG. 3. The aza-substituted surfactants 12-5N-12, 12-8N-12, and 12-7N-12 had similar toxicity compared to the Lipofectamine Plus reagent, with cell viability around 80% of the controls (i.e., no treatment or plasmid DNA alone; p>0.05).

[5] = tested on: COS-7 African Green monkey kidney fibroblast cells; experiment: Transfection assay (luciferase production after transfection with plasmid DNA-gemini surfactant complexes); assay type: cell-based; settings: PG complexes, complexed with DNA in the absence of helper lipid (DOPE)
[6] = Size (hydrodynamic radius) and zeta potential as a function of pH; assay type: physicochemical; settings: PGL complexes
Protocol: Determinations of size (hydrodynamic radius, RH) and zeta potential (ζ) as a function of pH were carried out using a Malvern Instruments (Worcestershire, UK) ZetaSizer NanoZs with MPT-2 auto-titrator attachment. 10 mL of the desired sample was placed in the titration cell of the auto-titrator and samples were titrated (in 0.2-0.5 pH unit increments) with 0.1 M NaOH and 0.1 M HCl over the desired pH range. Size and zeta potential measurement were made in triplicate at each pH point, and the reported values represent the average±standard error. pH titrations of aqueous gemini surfactant solutions were made at a surfactant concentration of 2.00 mM, above the critical micelle concentration in all cases.
Solutions for size, zeta potential, and circular dichrosicm (CD) measurements were prepared, in larger volumes, as described above for the transfection experiments using a pGTmCMV.IFN-GFP plasmid DNA, previously constructed in our lab. Solutions containing only surfactant and plasmid DNA were prepared by addition of an aliquot of stock plasmid DNA to the gemini surfactant solution to a charge ratio of 1:10 (DNA:surfactant).

DNA = experiment: Binding constant between py-s-12 surfactants and DNA from changes in the UV spectrum of the pyrene moiety; set-up: species or system salmon; settings: estimated from changes in the UV spectrum of the pyrene moiety
From the text: Similar to a series of peptide substituted pyrene compounds described in [51], the S1-S0, S2-S0, and S3-S0 transitions have lambdamax values of 376, 343, and 276 nm, respectively. The broadening of the absorbance bands of pyrene, the red shift in the absorbance band, and the observed hyperchromism in the presence of DNA are evidence of complexed pyrene compounds Quantitative estimates of the binding constants between py-s-12 surfactants and DNA were obtained by monitoring changes in the UV spectrum of the pyrene moiety. The binding constant for py-3-12 and DNA was estimated to be 5.9×10^3 L mol^−1 and that of py-6-12 was 1.9×10^4 L mol^−1. The stronger binding of py-6-12 to DNA implied that the distance between the cationic head groups is more suitable to electrostatically bind to DNA.
Pyrene, 6-bromohexanoyl chloride, anhydrous aluminum chloride, triethylsilane, trifluoroacetatic acid, N,N,N′,N′-tetramethylpropanediamine, N,N,N′,N′-tetramethylhexanediamine, and 1-bromododecane were purchased from Aldrich Inc. All solutions were prepared using analytical-grade water obtained from a Millipore Milli-Q filtration system. The sodium salt of double-stranded (ds) salmon sperm DNA (about 2 kbp, as stated by the manufacturer, Sigma) was used as received. […]

[7] = plasmid DNA-gemini surfactant-DOPE systems

Structure (SMILES)	membrane charge density σM [1]	d-spacing of main scattering peak [2] [Å]	phase / morphology of lipid bilayers from scattering pattern (in words) [2]	scattering peak position q, lamellar (L) phase [2, 7]	scattering peak position q, DNA [2, 7]	Head group area a0 [3] [nm^2/molecule]	transfection efficiency (in words) [4]	cell viability (cultured cells)	transfection efficiency (in words) [5]	also measured
CCCCCCCCCCCC[N+](C)(C)CC[N+](C)(C)CCCCCCCCCCCC.[Br-].[Br-] [12-2-12, reference compound]	1.43 ×10^−2 e/Å^2	61.7	lamellar (L) phase	0.203 (L) Å^−1 and 0.102 Å^−1	0.172 Å^−1	0.89 ± 0.05	–	–	–	d-spacing of adjacent DNA molecules [2]: 36.5 Å
CCCCCCCCCCCC[N+](C)(C)CC(O)C(O)C[N+](C)(C)CCCCCCCCCCCC.[Br-].[Br-] (centres unmarked) [12-4(OH)2-12]	–	–	mixed lamellar, hexagonal, and cubic phases	–	–	–	enhanced transfection efficiency compared to 12-3-12; also recorded: higher levels of transfection efficiency compared to the non-substituted gemini surfactant 12-3-12	–	–	–
CCCCCCCCCCCC[N+](C)(C)CCN(C)CC[N+](C)(C)CCCCCCCCCCCC [12-5N-12]	1.05 ×10^−2 e/Å^2	58.6	lamellar (L) phase	0.107 Å^−1 and 0.207 (L) Å^−1	0.172 Å^−1 and 0.173 Å^−1	1.30 ± 0.03	enhanced transfection efficiency compared to the un-substituted surfactant, 12-3-12; also recorded: higher levels of transfection efficiency compared to the non-substituted gemini surfactant 12-3-12	around 80%	similarly low transfection efficiency compared to 12-3-12	transfection efficiency (in words) ([4]; listed as 125N-12): less efficient in DNA transfection; d-spacing of adjacent DNA molecules [2]: 36.5 Å
CCCCCCCCCCCC[N+](C)(C)CCCN(C)CCC[N+](C)(C)CCCCCCCCCCCC.[Br-].[Br-] [12-7N-12, 1,9-bis(dodecyl)-1,1,5,9,9-pentamethyl-5-aza-1,9,-nonanediammonium dibromide]	0.748 ×10^−2 e/Å^2	59.6	–	–	–	2.06 ± 0.20	enhanced transfection efficiency compared to the un-substituted surfactant, 12-3-12; also recorded: higher levels of transfection efficiency compared to the non-substituted gemini surfactant 12-3-12; also recorded: most efficient aza-substituted surfactant; also recorded: highest	around 80%	similarly low transfection efficiency compared to 12-3-12	pH dependence of particle size (in words) [6]: remained essentially unchanged; pH dependence of zeta potential (in words) [6]: increased as a function of decreasing pH
CCCCCCCCCCCC[N+](C)(C)CCN(C)CCN(C)CC[N+](C)(C)CCCCCCCCCCCC [12-8N-12]	0.780 ×10^−2 e/Å^2	59.6	lamellar structure	0.105 Å^−1 and 0.210 (L) Å^−1	0.170 Å^−1 and 0.169 (DNA), Å^−1	1.95 ± 0.13	–	around 80%	similarly low transfection efficiency compared to 12-3-12	scattering peak position q, no phase assigned [2, 7]: 0.119 Å^−1
CCCCCCCCCCCC[N+](C)(C)CCOCC[N+](C)(C)CCCCCCCCCCCC.[Br-].[Br-] [12-E01-12]	–	–	mixed lamellar, hexagonal, and cubic phases	–	–	–	enhanced transfection efficiency compared to 12-3-12; also recorded: higher levels of transfection efficiency compared to the non-substituted gemini surfactant 12-3-12	–	–	–
CCCCCCCCCCCC[N+](C)(C)CCC[N+](C)(C)CCCCCCc1ccc2ccc3cccc4ccc1c2c34.[Br-].[Br-] [py-3-12, N1-dodecyl,N1,N1,N3,N3-tetramethyl-N3-(6-(pyren-6-yl)-hexyl)propane-1,3-diammonium dibromide]	–	–	–	–	–	–	–	–	–	binding constant with DNA (DNA): 5900 L/mol
CCCCCCCCCCCC[N+](C)(C)CCCCCC[N+](C)(C)CCCCCCc1ccc2ccc3cccc4ccc1c2c34.[Br-].[Br-] [py-6-12, N1-dodecyl,N1,N1,N6,N6-tetramethyl-N6-(6-(pyren-6-yl)-hexyl)hexane-1,6-diammonium dibromide]	–	–	–	–	–	–	–	–	–	binding constant with DNA (DNA): 19000 L/mol
